Earlier results, collected in article PMC12304352, “Optimization of a GMP-compliant automated one-pot synthesis of Al[^18F]F-NOTA-Ubiquicidin29 − 41 for bacterial infection imaging by PET/CT” (EJNMMI Radiopharmacy and Chemistry, 2025).

Test system: methicillin-resistant S. aureus (MRSA)
Settings: injected intravenously, ref Brouwer et al. [2006]
From the text: Ubiquicidin (UBI), a cationic antimicrobial peptide fragment, has emerged as a promising agent for infection imaging due to its selective binding to anionic bacterial membranes (Ferro-Flores et al. [2016]). […] Another UBI-derived peptide (UBI29 − 41) radiolabeled with technetium-99m, was used as a probe for real-time, whole- ...

For “UBI31 − 38: synthetic ubiquicidin derivative composed of only eight amino acids (KVDENGKI; Small ribosomal subunit protein eS31; UniProt P62979 107-114, looked up, fragment)”, the “Efficacy against MRSA in a mouse infection model” value is given as “somewhat reduced activity”.
